Assay results taken from patent publication US11679124B2, “Composition for use in the treatment of conditions caused by calcium deficiency” (Epicyt Pharma AB, priority 2018, dated 2023).

Legend:
Format in all cases: cell-based, human
Caco-2 cells = experiment: Ca2+ transport across Caco-2 monolayer without calcium gradient; details: 10 nM 1.25(OH)2-vitamin D3, last 48 hours; no Ca2+ gradient, 1.8 mM on each side
Protocol: The Caco-2 cells were cultivated in on permeable support for 11-14 days, slightly modified according to Giuliano A. R., & Wood R. J. On the day of the experiments the trans-epithelial electrical resistance was measured and only preparations with values between 400 and 900 Ohms×cm^2 were counted. Tested substances were given in the top compartment and effect as read after 24 to 48 h. Ca^2+ flux was measured using liquid scintillation comparing the lower compartment with the upper.
In the present experiment the Caco-2 cells were cultured and grown to epithelium-shaped confluence over 14 days. The following experiments were performed according to Giuliano A. R., & Wood R. J. The effect of 10 nM 1.25(OH)2-vitamin D3 on the calcium transport was tested during the last 48 hours. Flux was tested without calcium (Ca^2+) gradient, concentration of calcium was 1.8 mM on each side of the layer of cells.
In the present experiment the Caco-2 cells were cultured and grown to epithelium-shaped confluence over 12 days. The cells were then grown in another 4 days in presence of 0.1 mM GCA, or in presence with 0.5 mM butyrate, or in presence of the GCA and butyrate in combination.
The effect of 10 nM 1.25(OH)2-vitamin D3 on the calcium transport was tested during the last 48 hours. […]

Hsp 90β = Hsp 90β expression in Caco-2 cells, western blot; details: 48 h, GCA 1×10^−4 M, butyrate 5×10^−4 M, vs. vehicle control
Protocol: Caco-2 cells with a passage or about 45 (number of time they have been divided) (Sigma-Aldrich Stockholm Sweden) were cultured in Dulbecco's Modified Eagle's Medium (Life Technologies Invitrogen AB, Lidingo, Sweden), with 10% Foetal Bovine Serum (FBS) (Life Technologies), 1% Non Essential Amino Acid (NEAA) (Life Technologies), 100 IU/mL Penicillin Streptomycin (Pen-Strep) (Life Technologies). The cells were incubated in 37° C. with 5% CO2 and cultured in a cell culture flask (BD Falcon®, VWR Internationals, Stockholm, Sweden) and the medium was changed at Monday, Wednesday and Friday every week. […]
For the protein harvesting, the cells was scraped into lysis buffer in protein kinase blocking solution (1% Triton x-100, EDTA; ethylenediaminetetraacetic acid) containing protein kinase inhibitor buffer (10 mM potassium phosphate buffer pH 6.8, 10 mM 3-[(3-cholamidopropyl) dimethylammonio]-1-propane sulphonate (CHAPS: Boehringer Mannheim, Mannheim, Germany) and protease inhibitor cocktail tablet Complete (Roche Diagnostics AB, Stockholm, Sweden). After shaking several times on ice, the cell debris was removed by centrifugation (10000×g for 10 min at 4° C.) and the supernatant's protein content was analysed using the Bradford method. […]

claudin-2 = experiment: Claudin-2 protein expression in Caco-2 cells, western blot; details: vitamin D 10 μM or 100 μM, geldanamycin 0.5 μM
Protocol: Caco-2 cells with a passage or about 45 (number of time they have been divided) (Sigma-Aldrich Stockholm Sweden) were cultured in Dulbecco's Modified Eagle's Medium (Life Technologies Invitrogen AB, Lidingo, Sweden), with 10% Foetal Bovine Serum (FBS) (Life Technologies), 1% Non Essential Amino Acid (NEAA) (Life Technologies), 100 IU/mL Penicillin Streptomycin (Pen-Strep) (Life Technologies). The cells were incubated in 37° C. with 5% CO2 and cultured in a cell culture flask (BD Falcon®, VWR Internationals, Stockholm, Sweden) and the medium was changed at Monday, Wednesday and Friday every week.
The cells were cultured for approximately 1 week before they were detached (0.25% trypsin-EDTA, Life Technologies) and seeded in 6 well plates with semipermeable filter inserts (3 μm pore size, BD Biosciences, Le Pont de Claix, France), 200 000 cells/well. At confluence the culture medium was changed to FBS-free in both the upper and lower well compartment and to the lower compartment also a mixture of […] insulin, 0.55 μg/mL transferring and 6.7 ng/mL selenium (ITS, Life Technologies) was added to establish cell polarity and structural differentiation (6-7). The cell monolayers were let to cultivate for 14 days before experiments. […]

C=C1/C(=C\C=C2/CCC[C@]3(C)[C@@H]([C@H](C)CCCC(C)(C)O)CC[C@@H]23)C[C@@H](O)C[C@@H]1O [1.25(OH)2-vitamin D3]
calcium transport (Experiment 3) (Caco-2 cells): active transport of vitamin D was confirmed

C[C@H](CCC(=O)NCC(=O)O)[C@H]1CC[C@H]2[C@@H]3[C@H](O)C[C@@H]4C[C@H](O)CC[C@]4(C)[C@H]3C[C@H](O)[C@]12C [GCA, glycocholic acid]
Hsp 90β protein expression normalized to GAPDH (Hsp 90β): no effect by itself

vitamin-D
claudin-2 protein expression (claudin-2): increase claudin-2 protein expression
